From ChEMBL document CHEMBL4420066, “Aryl amine substituted quinoxaline used as anticancer drugs” (2017)
Active and inactive are the calls of the source. The calls are words filed in the database; no cut-off is given here.

Key:
HA22T cell line [1] = assay: Induction of apoptosis in human HA22T cells assessed as induction of DNA fragmentation at 1 uM incubated for 24 hrs by ELISA; type: functional, cell-based
HA22T cell line [2] = assay: Induction of apoptosis in human HA22T cells assessed as accumulation at subG1 phase at 0.5 to 4 uM by flow cytometry; type: functional, cell-based
Hep 3B2 [3] = assay: Induction of apoptosis in human Hep3B cells assessed as accumulation at subG1 phase at 0.5 to 4 uM by flow cytometry; type: functional, cell-based
SK-HEP1 [4] = assay: Induction of apoptosis in human SKHEP1 cells assessed as accumulation at subG1 phase at 0.5 to 4 uM by flow cytometry; type: functional, cell-based
Hep 3B2 [5] = assay: Induction of apoptosis in human Hep3B cells >= 2 uM incubated for 48 hrs by annexin-V-FITC staining based by flow cytometry relative to control; type: functional
[6] = Induction of apoptosis in human PLC5 cells >= 2 uM incubated for 48 hrs by annexin-V-FITC staining based by flow cytometry relative to control; type: functional
SK-HEP1 [7] = assay: Induction of apoptosis in human SKHEP1 cells >= 2 uM incubated for 48 hrs by annexin-V-FITC staining based by flow cytometry relative to control; type: functional
HA22T cell line [8] = assay: Induction of necrosis in human HA22T cells >= 2 uM incubated for 48 hrs by annexin-V-FITC staining based by flow cytometry relative to control; type: functional
Hep 3B2 [9] = assay: Induction of necrosis in human Hep3B cells >= 2 uM incubated for 48 hrs by annexin-V-FITC staining based by flow cytometry relative to control; type: functional
HA22T cell line [10] = assay: Induction of apoptosis in human HA22T cells assessed as caspase-9 activation at 0.5 to 4 uM incubated for 48 hrs by Western blotting analysis; type: functional, cell-based
SK-HEP1 [11] = assay: Induction of apoptosis in human SKHEP1 cells assessed as induction of PARP cleavage at 0.5 to 4 uM incubated for 48 hrs by Western blotting analysis; type: functional, cell-based
SK-HEP1 [12] = assay: Induction of apoptosis in human SKHEP1 cells assessed as induction of DNA fragmentation at 1 uM incubated for 24 hrs by ELISA; type: functional, cell-based
HA22T cell line [13] = assay: Inhibition of CIP2A protein expression in human HA22T cells assessed as CIP2A protein expression ratio level at 1 uM by Western blotting analysis (Rvb =1); type: functional
HA22T cell line [14] = assay: Inhibition of CIP2A protein expression in human HA22T cells assessed as CIP2A protein expression ratio level at 4 uM by Western blotting analysis (Rvb =1); type: functional
Hep 3B2 [15] = assay: Inhibition of CIP2A protein expression in human Hep3B cells assessed as CIP2A protein expression ratio level at 4 uM by Western blotting analysis (Rvb =1); type: functional
[16] = Inhibition of CIP2A protein expression in human PLC5 cells assessed as CIP2A protein expression ratio level at 0.5 uM by Western blotting analysis (Rvb =1); type: functional
[17] = Inhibition of CIP2A protein expression in human PLC5 cells assessed as CIP2A protein expression ratio level at 2 uM by Western blotting analysis (Rvb =1); type: functional
SK-HEP1 [18] = assay: Inhibition of CIP2A protein expression in human SKHEP1 cells assessed as CIP2A protein expression ratio level at 0.5 uM by Western blotting analysis (Rvb =1); type: functional
SK-HEP1 [19] = assay: Inhibition of CIP2A protein expression in human SKHEP1 cells assessed as CIP2A protein expression ratio level at 4 uM by Western blotting analysis (; type: functional
[20] = biological target: T1, Serine/threonine-protein kinase AKT (Homo sapiens) (UniProt P31751+Q9Y243+P31749); assay: Inhibition of Akt phosphorylation at S473 residue in human Hep3B cells by Western blotting analysis; type: cell-based
[21] = biological target: T1, Serine/threonine-protein kinase AKT (Homo sapiens); assay: Inhibition of Akt phosphorylation at S473 residue in human HA22T cells by Western blotting analysis; type: cell-based
HA22T cell line [22] = assay: Inhibition of CIP2A protein expression in human HA22T cells at 1 uM by Western blotting analysis; type: functional, cell-based; conditions: TDE = time-dependent effect
Homo sapiens [23] = species: Homo sapiens; assay: Activation of PP2A in human PLC5 cells assessed as increase in protein phosphatase activity at 1 uM incubated for 24 hrs using phosphopeptide substrate incubated for 10 mins by malachite green-phosphate complex assay; type: cell-based
Homo sapiens [24] = species: Homo sapiens; assay: Activation of PP2A in human Hep3B cells assessed as increase in protein phosphatase activity at 1 uM incubated for 24 hrs using phosphopeptide substrate incubated for 10 mins by malachite green-phosphate complex assay; type: cell-based
SK-HEP1 [25] = assay: Inhibition of PP2A-A protein expression in human SKHEP1 cells at 1 uM incubated for 24 hrs by Western blotting analysis; type: functional, cell-based
SK-HEP1 [26] = assay: Inhibition of PP2A-B5 protein expression in human SKHEP1 cells at 1 uM incubated for 24 hrs by Western blotting analysis; type: functional, cell-based
Homo sapiens [27] = species: Homo sapiens; assay: Inhibition of PP2A-B5 protein expression in human PLC5 cells at 1 uM incubated for 24 hrs by Western blotting analysis; type: functional, cell-based
Homo sapiens [28] = species: Homo sapiens; assay: Inhibition of PP2A-C protein expression in human PLC5 cells at 1 uM incubated for 24 hrs by Western blotting analysis; type: functional, cell-based
HA22T cell line [29] = assay: Inhibition of PP2A-B5 protein expression in human HA22T cells at 1 uM incubated for 24 hrs by Western blotting analysis; type: functional, cell-based
Homo sapiens [30] = species: Homo sapiens; assay: Induction of apoptosis in human PLC5 cells at 2 uM incubated for 24 hrs in presence of 100 nM PP2A inhibitor okadaic acid by annexin-V-FITC staining based by flow cytometry; type: functional, cell-based
Homo sapiens [31] = species: Homo sapiens; assay: Inhibition of human CIP2A gene promoter in human PLC5 cells assessed as inhibition of ELK1 protein expression by Western blotting analysis; type: cell-based
Homo sapiens [32] = species: Homo sapiens; assay: Induction of apoptosis in human PLC5 cells with ectopic overexpression of GFP-tagged Elk-1 at 2 uM incubated for 24 hrs by annexin-V-FITC staining based by flow cytometry; type: functional, cell-based
Homo sapiens [33] = assay: Antitumor activity against human PLC5 cells xenografted in mouse assessed as reduction in tumor size at 10 mg/kg dosed for 4 weeks; type: functional, organism-based
Mus musculus = assay: Suppression of Akt phosphorylation at S473 residue in tumor of human PLC5 cells xenografted in mouse at 10 mg/kg dosed for 4 weeks by Western blot analysis; type: functional, organism-based
Homo sapiens [34] = species: Homo sapiens; assay: Cytotoxicity against human PLC5 cells assessed as reduction in cell viability at 0.5 to 4 uM incubated for 48 hrs by MTT assay; type: functional, cell-based
Homo sapiens [35] = species: Homo sapiens; assay: Activation of PP2A in human HA22T cells assessed as minimal concentration causing increase in protein phosphatase activity incubated for 24 hrs using phosphopeptide substrate incubated for 10 mins by malachite green-phosphate complex assay; type: cell-based
Homo sapiens [36] = species: Homo sapiens; assay: Activation of PP2A in human PLC5 cells assessed as minimal concentration causing increase in protein phosphatase activity incubated for 24 hrs using phosphopeptide substrate incubated for 10 mins by malachite green-phosphate complex assay; type: cell-based
Homo sapiens [37] = species: Homo sapiens; assay: Activation of PP2A in human Hep3B cells assessed as minimal concentration causing increase in protein phosphatase activity incubated for 24 hrs using phosphopeptide substrate incubated for 10 mins by malachite green-phosphate complex assay; type: cell-based
Homo sapiens [38] = species: Homo sapiens; assay: Activation of PP2A in human SKHEP1 cells assessed as minimal concentration causing increase in protein phosphatase activity incubated for 24 hrs using phosphopeptide substrate incubated for 10 mins by malachite green-phosphate complex assay; type: cell-based

T1 sequence (P31749 whole entry, looked up): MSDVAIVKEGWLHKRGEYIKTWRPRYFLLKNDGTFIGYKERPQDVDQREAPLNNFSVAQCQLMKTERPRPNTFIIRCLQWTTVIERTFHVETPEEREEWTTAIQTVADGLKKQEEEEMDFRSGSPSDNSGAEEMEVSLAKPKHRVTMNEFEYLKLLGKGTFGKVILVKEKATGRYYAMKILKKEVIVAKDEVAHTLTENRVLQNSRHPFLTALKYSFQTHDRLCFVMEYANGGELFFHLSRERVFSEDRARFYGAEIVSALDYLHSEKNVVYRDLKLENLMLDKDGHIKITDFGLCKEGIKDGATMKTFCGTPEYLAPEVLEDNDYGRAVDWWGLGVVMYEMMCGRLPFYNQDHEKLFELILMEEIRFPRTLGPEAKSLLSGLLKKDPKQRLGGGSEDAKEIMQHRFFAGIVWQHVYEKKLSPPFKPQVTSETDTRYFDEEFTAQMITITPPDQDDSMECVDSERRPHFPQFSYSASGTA
T1 sequence (P31751 whole entry, looked up): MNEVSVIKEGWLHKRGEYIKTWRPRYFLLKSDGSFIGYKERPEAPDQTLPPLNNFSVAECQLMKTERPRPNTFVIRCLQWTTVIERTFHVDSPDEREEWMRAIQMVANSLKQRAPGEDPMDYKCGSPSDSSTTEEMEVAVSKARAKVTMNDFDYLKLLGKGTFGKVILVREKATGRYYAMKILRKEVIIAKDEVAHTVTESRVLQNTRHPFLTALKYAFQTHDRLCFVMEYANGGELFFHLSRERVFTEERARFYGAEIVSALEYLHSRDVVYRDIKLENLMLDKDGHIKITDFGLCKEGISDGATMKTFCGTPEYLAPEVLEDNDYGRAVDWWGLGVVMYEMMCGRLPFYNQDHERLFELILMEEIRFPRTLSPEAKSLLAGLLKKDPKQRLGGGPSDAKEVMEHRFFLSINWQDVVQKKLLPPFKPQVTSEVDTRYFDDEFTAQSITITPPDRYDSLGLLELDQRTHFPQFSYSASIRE
T1 sequence (Q9Y243 whole entry, looked up): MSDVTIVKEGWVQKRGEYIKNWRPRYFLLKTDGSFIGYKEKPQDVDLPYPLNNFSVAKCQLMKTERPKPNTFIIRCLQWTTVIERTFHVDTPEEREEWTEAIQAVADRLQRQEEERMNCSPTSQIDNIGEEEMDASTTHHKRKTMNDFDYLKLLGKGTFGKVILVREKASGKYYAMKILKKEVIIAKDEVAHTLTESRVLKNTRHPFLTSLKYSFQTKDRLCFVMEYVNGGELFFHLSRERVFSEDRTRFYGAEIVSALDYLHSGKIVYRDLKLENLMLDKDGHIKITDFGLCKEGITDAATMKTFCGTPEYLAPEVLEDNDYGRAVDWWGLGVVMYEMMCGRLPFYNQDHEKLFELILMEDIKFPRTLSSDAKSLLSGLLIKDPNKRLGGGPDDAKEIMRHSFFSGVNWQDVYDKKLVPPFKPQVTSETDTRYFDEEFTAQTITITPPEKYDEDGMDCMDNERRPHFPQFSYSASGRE

## C#Cc1cccc(Nc2nc3ccccc3nc2Nc2cccc(C#C)c2)c1
HA22T cell line [1]
  Activity: Active
HA22T cell line [2]
  Activity: Active
Hep 3B2 [3]
  Activity: Active
SK-HEP1 [4]
  Activity: Active
Hep 3B2 [5]
  Activity: 50%
[6]
  Activity: 50%
SK-HEP1 [7]
  Activity: 50%
HA22T cell line [8]
  Activity: 50%
Hep 3B2 [9]
  Activity: 50%
HA22T cell line [10]
  Activity: Dose-dependent effect
SK-HEP1 [11]
  Activity: Dose-dependent effect
SK-HEP1 [12]
  Activity: Active
HA22T cell line [13]
  Ratio: 0.84
HA22T cell line [14]
  Ratio: 0.01
Hep 3B2 [15]
  Ratio: 0.13
[16]
  Ratio: 0.84
[17]
  Ratio: 0.01
SK-HEP1 [18]
  Ratio: 0.73
SK-HEP1 [19]
  Ratio: 0.1
[20]
  inhibition: Dose-dependent effect
[21]
  inhibition: Dose-dependent effect
HA22T cell line [22]
  inhibition: Tde
Homo sapiens [23]
  Activity: Active
Homo sapiens [24]
  Activity: Active
SK-HEP1 [25]
  inhibition: inactive
SK-HEP1 [26]
  inhibition: inactive
Homo sapiens [27]
  inhibition: inactive
Homo sapiens [28]
  inhibition: inactive
HA22T cell line [29]
  inhibition: inactive
Homo sapiens [30]
  Activity: inactive
Homo sapiens [31]
  inhibition: Dose-dependent effect
Homo sapiens [32]
  Activity: inactive
Homo sapiens [33]
  Activity: Active
Mus musculus
  Activity: Active
Homo sapiens [34]
  Activity: Active
Homo sapiens [35]
  MEC: 100 to 200 nM
Homo sapiens [36]
  MEC: 100 to 200 nM
Homo sapiens [37]
  MEC: 100 to 200 nM
Homo sapiens [38]
  MEC: 100 to 200 nM
